From patent US10344060B2 (priority 2013, dated 2019)

Tests used:
hNav1.4 = hNav1.4 (Homo sapiens, UniProt P35499); assay: cell-based; format: cell-based; conditions: Table 12; ratio of PX tonic IC50 values
hNav1.5 = hNav1.5 (Homo sapiens, UniProt Q14524); assay: cell-based; conditions: Table 12; ratio of PX tonic IC50 values
Sequence of hNav1.5 (Q14524 whole entry): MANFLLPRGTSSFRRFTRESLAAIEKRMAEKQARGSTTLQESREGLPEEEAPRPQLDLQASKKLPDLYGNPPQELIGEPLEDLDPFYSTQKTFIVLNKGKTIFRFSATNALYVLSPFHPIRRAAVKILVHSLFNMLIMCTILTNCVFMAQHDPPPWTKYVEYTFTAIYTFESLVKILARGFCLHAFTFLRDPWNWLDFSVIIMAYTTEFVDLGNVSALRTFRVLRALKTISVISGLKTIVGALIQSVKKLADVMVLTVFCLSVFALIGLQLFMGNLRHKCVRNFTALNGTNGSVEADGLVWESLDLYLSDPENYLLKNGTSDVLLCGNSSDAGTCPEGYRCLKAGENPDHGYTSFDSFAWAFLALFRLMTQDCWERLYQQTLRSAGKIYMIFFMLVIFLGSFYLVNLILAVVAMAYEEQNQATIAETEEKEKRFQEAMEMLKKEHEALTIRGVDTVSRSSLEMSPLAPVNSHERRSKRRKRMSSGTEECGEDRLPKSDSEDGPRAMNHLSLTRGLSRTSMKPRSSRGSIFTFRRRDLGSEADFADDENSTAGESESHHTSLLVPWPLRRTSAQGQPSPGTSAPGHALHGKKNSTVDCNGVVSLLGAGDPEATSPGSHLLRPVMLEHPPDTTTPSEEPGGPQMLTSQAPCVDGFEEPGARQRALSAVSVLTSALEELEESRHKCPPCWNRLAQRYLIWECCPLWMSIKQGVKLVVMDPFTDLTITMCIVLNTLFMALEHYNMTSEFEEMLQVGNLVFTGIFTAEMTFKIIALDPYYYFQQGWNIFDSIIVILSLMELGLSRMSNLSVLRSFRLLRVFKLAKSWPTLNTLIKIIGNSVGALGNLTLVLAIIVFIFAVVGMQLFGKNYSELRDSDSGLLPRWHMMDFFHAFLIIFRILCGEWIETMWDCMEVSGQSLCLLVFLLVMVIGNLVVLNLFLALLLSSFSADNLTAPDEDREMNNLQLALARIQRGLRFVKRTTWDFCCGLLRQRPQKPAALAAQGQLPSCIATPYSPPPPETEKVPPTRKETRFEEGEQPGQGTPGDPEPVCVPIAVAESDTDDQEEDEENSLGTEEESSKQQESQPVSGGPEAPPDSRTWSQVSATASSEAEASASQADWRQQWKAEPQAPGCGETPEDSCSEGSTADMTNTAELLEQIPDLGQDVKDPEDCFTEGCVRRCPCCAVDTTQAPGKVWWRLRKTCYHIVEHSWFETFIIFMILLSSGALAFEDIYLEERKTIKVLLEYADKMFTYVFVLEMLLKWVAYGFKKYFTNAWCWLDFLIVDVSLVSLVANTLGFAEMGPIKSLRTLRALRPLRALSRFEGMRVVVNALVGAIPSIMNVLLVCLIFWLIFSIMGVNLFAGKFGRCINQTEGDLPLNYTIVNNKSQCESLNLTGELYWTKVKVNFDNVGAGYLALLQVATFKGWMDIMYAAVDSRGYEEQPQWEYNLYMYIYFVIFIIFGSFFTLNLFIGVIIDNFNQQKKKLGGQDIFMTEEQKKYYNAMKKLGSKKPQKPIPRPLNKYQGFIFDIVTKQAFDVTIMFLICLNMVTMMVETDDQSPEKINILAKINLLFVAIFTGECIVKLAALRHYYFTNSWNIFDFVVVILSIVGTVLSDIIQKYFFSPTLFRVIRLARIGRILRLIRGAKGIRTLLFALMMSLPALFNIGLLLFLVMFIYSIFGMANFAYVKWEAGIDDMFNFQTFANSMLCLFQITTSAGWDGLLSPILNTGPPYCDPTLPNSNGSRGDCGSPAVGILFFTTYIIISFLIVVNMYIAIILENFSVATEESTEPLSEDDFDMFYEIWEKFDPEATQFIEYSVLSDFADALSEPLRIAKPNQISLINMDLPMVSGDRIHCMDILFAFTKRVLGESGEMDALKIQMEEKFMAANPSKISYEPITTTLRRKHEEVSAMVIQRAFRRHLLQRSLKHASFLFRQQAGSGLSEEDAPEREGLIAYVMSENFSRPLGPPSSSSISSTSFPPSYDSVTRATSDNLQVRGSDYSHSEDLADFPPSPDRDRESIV

Sequence of hNav1.4 (P35499 whole entry): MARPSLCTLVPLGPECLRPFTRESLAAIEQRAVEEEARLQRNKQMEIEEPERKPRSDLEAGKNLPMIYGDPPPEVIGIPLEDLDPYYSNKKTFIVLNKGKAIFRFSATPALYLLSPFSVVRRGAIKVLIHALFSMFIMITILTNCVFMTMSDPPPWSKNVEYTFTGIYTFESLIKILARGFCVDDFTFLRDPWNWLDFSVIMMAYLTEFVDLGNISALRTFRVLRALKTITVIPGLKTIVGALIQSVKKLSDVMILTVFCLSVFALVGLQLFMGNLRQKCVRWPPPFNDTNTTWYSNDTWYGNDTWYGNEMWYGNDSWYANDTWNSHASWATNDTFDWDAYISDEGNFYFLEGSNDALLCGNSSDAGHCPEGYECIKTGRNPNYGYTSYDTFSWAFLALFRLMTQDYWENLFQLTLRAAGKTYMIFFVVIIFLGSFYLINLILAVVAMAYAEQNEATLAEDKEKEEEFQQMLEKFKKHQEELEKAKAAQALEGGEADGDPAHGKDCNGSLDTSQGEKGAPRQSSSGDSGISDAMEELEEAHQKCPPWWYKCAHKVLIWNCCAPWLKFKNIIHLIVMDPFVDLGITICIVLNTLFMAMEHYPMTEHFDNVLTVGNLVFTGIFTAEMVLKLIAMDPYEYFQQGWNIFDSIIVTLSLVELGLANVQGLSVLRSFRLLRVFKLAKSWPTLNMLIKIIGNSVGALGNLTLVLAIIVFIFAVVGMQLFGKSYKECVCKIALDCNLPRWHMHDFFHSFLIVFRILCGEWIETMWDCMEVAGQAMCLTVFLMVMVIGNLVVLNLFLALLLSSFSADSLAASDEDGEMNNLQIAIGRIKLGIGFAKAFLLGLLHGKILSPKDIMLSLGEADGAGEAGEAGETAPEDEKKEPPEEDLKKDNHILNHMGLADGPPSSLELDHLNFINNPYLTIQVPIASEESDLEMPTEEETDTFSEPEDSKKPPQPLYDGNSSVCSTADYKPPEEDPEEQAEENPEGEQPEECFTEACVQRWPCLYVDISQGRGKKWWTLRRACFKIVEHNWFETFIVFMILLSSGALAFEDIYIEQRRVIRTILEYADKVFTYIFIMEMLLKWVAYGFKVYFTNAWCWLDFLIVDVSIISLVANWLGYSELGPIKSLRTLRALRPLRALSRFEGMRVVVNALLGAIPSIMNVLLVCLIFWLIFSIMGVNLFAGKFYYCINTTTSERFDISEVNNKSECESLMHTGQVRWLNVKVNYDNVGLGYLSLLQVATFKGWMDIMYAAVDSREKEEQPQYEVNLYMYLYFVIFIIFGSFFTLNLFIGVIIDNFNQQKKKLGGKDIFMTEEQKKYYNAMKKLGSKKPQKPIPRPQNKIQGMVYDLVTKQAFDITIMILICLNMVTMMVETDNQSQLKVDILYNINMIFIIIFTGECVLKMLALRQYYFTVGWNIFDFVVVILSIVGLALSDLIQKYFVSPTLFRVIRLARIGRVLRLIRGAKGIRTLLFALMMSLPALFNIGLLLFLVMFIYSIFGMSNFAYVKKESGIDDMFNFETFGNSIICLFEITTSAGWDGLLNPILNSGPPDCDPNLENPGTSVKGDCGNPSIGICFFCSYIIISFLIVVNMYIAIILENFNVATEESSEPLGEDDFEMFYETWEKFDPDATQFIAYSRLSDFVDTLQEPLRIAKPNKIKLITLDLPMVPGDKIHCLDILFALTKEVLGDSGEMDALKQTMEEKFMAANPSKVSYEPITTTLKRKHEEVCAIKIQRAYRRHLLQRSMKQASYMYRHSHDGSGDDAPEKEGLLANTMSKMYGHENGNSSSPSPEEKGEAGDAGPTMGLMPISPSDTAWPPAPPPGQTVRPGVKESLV

SMILES | Nav1.4/Nav1.7 (hNav1.4) | Nav1.5/Nav1.7 (hNav1.5)
C#CC[C@H](N)C(=O)NCCOCCOCCOCCOCCOCCOCCOCCOCCOCCOCCOCCOCCC(=O)NCCCC[C@@H]1NC(=O)[C@H](CCCNC(=N)N)NC(=O)[C@H](CCCCN)NC(=O)[C@H](CO)NC(=O)[C@H](CC(=O)O)NC(=O)[C@@H]2CSSC[C@@H]3NC(=O)[C@H](CCC(=O)O)NC(=O)[C@H](CC(C)C)NC(=O)CNC(=O)[C@H](CCC(=O)O)NC(=O)[C@H](CSSC[C@H](NC(=O)[C@@H](N)Cc4ccc(O)cc4)C(=O)N[C@@H](CCC(N)=O)C(=O)N[C@@H](CCCCN)C(=O)N[C@@H](Cc4c[nH]c5ccccc45)C(=O)N[C@@H](CCCC)C(=O)N[C@@H](Cc4c[nH]c5ccccc45)C(=O)N[C@@H]([C@@H](C)O)C(=O)N2)NC(=O)[C@H](CSSC[C@@H](C(=O)N[C@@H](CCCNC(=N)N)C(=O)N[C@@H](CCCCN)C(=O)N[C@H](C(=O)N[C@@H](Cc2c[nH]c4ccccc24)C(N)=O)[C@@H](C)CC)NC(=O)[C@H](Cc2c[nH]c4ccccc24)NC(=O)[C@H](CC(C)C)NC(=O)[C@H](CCCCN)NC3=O)NC1=O [compound 290] | 5 | 12
C#CC[C@H](N)C(=O)NCCOCCOCCOCCOCCC(=O)NCCCC[C@@H]1NC(=O)[C@H](CCCNC(=N)N)NC(=O)[C@H](CCCCN)NC(=O)[C@H](CO)NC(=O)[C@H](CC(=O)O)NC(=O)[C@@H]2CSSC[C@@H]3NC(=O)[C@H](CCC(=O)O)NC(=O)[C@H](CC(C)C)NC(=O)CNC(=O)[C@H](CCC(=O)O)NC(=O)[C@H](CSSC[C@H](NC(=O)[C@@H](N)Cc4ccc(O)cc4)C(=O)N[C@@H](CCC(N)=O)C(=O)N[C@@H](CCCCN)C(=O)N[C@@H](Cc4c[nH]c5ccccc45)C(=O)N[C@@H](CCCC)C(=O)N[C@@H](Cc4c[nH]c5ccccc45)C(=O)N[C@@H]([C@@H](C)O)C(=O)N2)NC(=O)[C@H](CSSC[C@@H](C(=O)N[C@@H](CCCNC(=N)N)C(=O)N[C@@H](CCCCN)C(=O)N[C@H](C(=O)N[C@@H](Cc2c[nH]c4ccccc24)C(N)=O)[C@@H](C)CC)NC(=O)[C@H](Cc2c[nH]c4ccccc24)NC(=O)[C@H](CC(C)C)NC(=O)[C@H](CCCCN)NC3=O)NC1=O [compound 291] | 38 | 100
C#CC[C@H](N)C(=O)NCCOCCOCCOCCOCCOCCOCCOCCOCCOCCOCCOCCOCCC(=O)NCCCC[C@@H]1NC(=O)[C@@H]2CSSC[C@H](NC(=O)[C@@H](N)Cc3ccc(O)cc3)C(=O)N[C@@H](CCC(N)=O)C(=O)N[C@@H](CCCCN)C(=O)N[C@@H](Cc3c[nH]c4ccccc34)C(=O)N[C@@H](CCCC)C(=O)N[C@@H](Cc3c[nH]c4ccccc34)C(=O)N[C@@H]([C@@H](C)O)C(=O)N[C@H]3CSSC[C@H](NC(=O)[C@H](CCC(=O)O)NC(=O)[C@H](CC(C)C)NC(=O)CNC1=O)C(=O)N[C@@H](CCCCN)C(=O)N[C@@H](CC(C)C)C(=O)N[C@@H](Cc1c[nH]c4ccccc14)C(=O)N[C@H](C(=O)N[C@@H](CCCNC(=N)N)C(=O)N[C@@H](CCCCN)C(=O)N[C@H](C(=O)N[C@@H](Cc1c[nH]c4ccccc14)C(N)=O)[C@@H](C)CC)CSSC[C@H](NC(=O)[C@H](C)NC(=O)[C@H](CCCNC(=N)N)NC(=O)[C@H](CCCCN)NC(=O)[C@H](CO)NC(=O)[C@H](CC(=O)O)NC3=O)C(=O)N2 [compound 292] | 2 | 3
C#CC[C@H](N)C(=O)NCCOCCOCCOCCOCCC(=O)NCCCC[C@@H]1NC(=O)[C@@H]2CSSC[C@H](NC(=O)[C@@H](N)Cc3ccc(O)cc3)C(=O)N[C@@H](CCC(N)=O)C(=O)N[C@@H](CCCCN)C(=O)N[C@@H](Cc3c[nH]c4ccccc34)C(=O)N[C@@H](CCCC)C(=O)N[C@@H](Cc3c[nH]c4ccccc34)C(=O)N[C@@H]([C@@H](C)O)C(=O)N[C@H]3CSSC[C@H](NC(=O)[C@H](CCC(=O)O)NC(=O)[C@H](CC(C)C)NC(=O)CNC1=O)C(=O)N[C@@H](CCCCN)C(=O)N[C@@H](CC(C)C)C(=O)N[C@@H](Cc1c[nH]c4ccccc14)C(=O)N[C@H](C(=O)N[C@@H](CCCNC(=N)N)C(=O)N[C@@H](CCCCN)C(=O)N[C@H](C(=O)N[C@@H](Cc1c[nH]c4ccccc14)C(N)=O)[C@@H](C)CC)CSSC[C@H](NC(=O)[C@H](C)NC(=O)[C@H](CCCNC(=N)N)NC(=O)[C@H](CCCCN)NC(=O)[C@H](CO)NC(=O)[C@H](CC(=O)O)NC3=O)C(=O)N2 [compound 293] | 1 | 1
C#CC[C@H](N)C(=O)N[C@@H](Cc1ccc(O)cc1)C(=O)N[C@H]1CSSC[C@@H]2NC(=O)[C@@H]3CSSC[C@@H](C(=O)N[C@@H](CCCNC(=N)N)C(=O)N[C@@H](CCCCN)C(=O)N[C@H](C(=O)N[C@H](C(N)=O)[C@@H](C)CC)[C@@H](C)CC)NC(=O)[C@H](Cc4c[nH]c5ccccc45)NC(=O)[C@H](CC(C)C)NC(=O)[C@H](CCCCN)NC(=O)[C@H](CSSC[C@H](NC(=O)[C@H]([C@@H](C)O)NC(=O)[C@H](Cc4c[nH]c5ccccc45)NC(=O)[C@H](CCCC)NC(=O)[C@H](Cc4c[nH]c5ccccc45)NC(=O)[C@H](CCCCN)NC(=O)[C@H](CCC(N)=O)NC1=O)C(=O)N[C@@H](CC(=O)O)C(=O)N[C@@H](CO)C(=O)N[C@@H](CCCCN)C(=O)N[C@@H](CCCNC(=N)N)C(=O)N[C@@H](C)C(=O)N3)NC(=O)[C@H](CCC(=O)O)NC(=O)[C@H](CC(C)C)NC(=O)CNC(=O)[C@H](CCC(=O)O)NC2=O [compound 297] | 431 | 642
C#CC[C@H](N)C(=O)N[C@@H](Cc1ccc(O)cc1)C(=O)N[C@H]1CSSC[C@@H]2NC(=O)[C@@H]3CSSC[C@@H](C(=O)N[C@@H](CCCNC(=N)N)C(=O)N[C@@H](CCCCN)C(=O)N[C@H](C(=O)N[C@@H](Cc4c[nH]c5ccccc45)C(N)=O)[C@@H](C)CC)NC(=O)[C@H](Cc4c[nH]c5ccccc45)NC(=O)[C@H](CC(C)C)NC(=O)[C@H](CCCCN)NC(=O)[C@H](CSSC[C@H](NC(=O)[C@H]([C@@H](C)O)NC(=O)[C@H](Cc4c[nH]c5ccccc45)NC(=O)[C@H](Cc4ccccc4)NC(=O)[C@H](Cc4c[nH]c5ccccc45)NC(=O)[C@H](CCCCN)NC(=O)[C@H](CCC(N)=O)NC1=O)C(=O)N[C@@H](CC(=O)O)C(=O)N[C@@H](CO)C(=O)N[C@@H](CCCCN)C(=O)N[C@@H](CCCNC(=N)N)C(=O)N[C@@H](C)C(=O)N3)NC(=O)[C@H](CCC(=O)O)NC(=O)[C@H](CC(C)C)NC(=O)CNC(=O)[C@H](CCC(=O)O)NC2=O [compound 298] | 44 | 52
C#CC[C@H](N)C(=O)N[C@@H](Cc1ccc(O)cc1)C(=O)N[C@H]1CSSC[C@@H]2NC(=O)[C@@H]3CSSC[C@@H](C(=O)N[C@@H](CCCNC(=N)N)C(=O)N[C@@H](CCCCN)C(=O)N[C@H](C(=O)N[C@@H](Cc4c[nH]c5ccccc45)C(N)=O)[C@@H](C)CC)NC(=O)[C@H](Cc4c[nH]c5ccccc45)NC(=O)[C@H](CC(C)C)NC(=O)[C@H](CCCCN)NC(=O)[C@H](CSSC[C@H](NC(=O)[C@H]([C@@H](C)O)NC(=O)[C@H](Cc4c[nH]c5ccccc45)NC(=O)[C@H](CC(C)C)NC(=O)[C@H](Cc4c[nH]c5ccccc45)NC(=O)[C@H](CCCCN)NC(=O)[C@H](CCC(N)=O)NC1=O)C(=O)N[C@@H](CC(=O)O)C(=O)N[C@@H](CO)C(=O)N[C@@H](CCCCN)C(=O)N[C@@H](CCCNC(=N)N)C(=O)N[C@@H](C)C(=O)N3)NC(=O)[C@H](CCC(=O)O)NC(=O)[C@H](CC(C)C)NC(=O)CNC(=O)[C@H](CCC(=O)O)NC2=O [compound 299] | 2069 | 2332
C#CC[C@H](N)C(=O)N[C@@H](Cc1ccc(O)cc1)C(=O)N[C@H]1CSSC[C@@H]2NC(=O)[C@@H]3CSSC[C@@H](C(=O)N[C@@H](CCCNC(=N)N)C(=O)N[C@@H](CCCCN)C(=O)N[C@H](C(=O)N[C@@H](Cc4c[nH]c5ccccc45)C(N)=O)[C@@H](C)CC)NC(=O)[C@H](Cc4c[nH]c5ccccc45)NC(=O)[C@H](CC(C)C)NC(=O)[C@H](CCCCN)NC(=O)[C@H](CSSC[C@H](NC(=O)[C@H]([C@@H](C)O)NC(=O)[C@H](Cc4c[nH]c5ccccc45)NC(=O)[C@H](CCC)NC(=O)[C@H](Cc4c[nH]c5ccccc45)NC(=O)[C@H](CCCCN)NC(=O)[C@H](CCC(N)=O)NC1=O)C(=O)N[C@@H](CC(=O)O)C(=O)N[C@@H](CO)C(=O)N[C@@H](CCCCN)C(=O)N[C@@H](CCCNC(=N)N)C(=O)N[C@@H](C)C(=O)N3)NC(=O)[C@H](CCC(=O)O)NC(=O)[C@H](CC(C)C)NC(=O)CNC(=O)[C@H](CCC(=O)O)NC2=O [compound 300] | 1183 | 6483
CCCC[C@@H]1NC(=O)[C@H](Cc2c[nH]c3ccccc23)NC(=O)[C@H](CCCCN)NC(=O)[C@H](CCC(N)=O)NC(=O)[C@@H](NC(=O)[C@@H](N)CCCCN=[N+]=[N-])CSSC[C@@H]2NC(=O)[C@@H]3CSSC[C@@H](C(=O)N[C@@H](CCCNC(=N)N)C(=O)N[C@@H](CCCCN)C(=O)N[C@H](C(=O)N[C@@H](Cc4c[nH]c5ccccc45)C(N)=O)[C@@H](C)CC)NC(=O)[C@H](Cc4c[nH]c5ccccc45)NC(=O)[C@H](CC(C)C)NC(=O)[C@H](CCCCN)NC(=O)[C@H](CSSC[C@H](NC(=O)[C@H]([C@@H](C)O)NC(=O)[C@H](Cc4c[nH]c5ccccc45)NC1=O)C(=O)N[C@@H](CC(=O)O)C(=O)N[C@@H](CO)C(=O)N[C@@H](CCCCN)C(=O)N[C@@H](CCCNC(=N)N)C(=O)N[C@@H](C)C(=O)N3)NC(=O)[C@H](CCC(=O)O)NC(=O)[C@H](CC(C)C)NC(=O)CNC(=O)[C@H](CCC(=O)O)NC2=O [compound 304] | 449 | 662
CCCC[C@@H]1NC(=O)[C@H](Cc2c[nH]c3ccccc23)NC(=O)[C@H](CCCCN)NC(=O)[C@H](CCC(N)=O)NC(=O)[C@@H](NC(=O)[C@@H](N)Cc2ccc(O)cc2)CSSC[C@@H]2NC(=O)[C@@H]3CSSC[C@@H](C(=O)N[C@@H](CCCNC(=N)N)C(=O)N[C@@H](CCCCN)C(=O)N[C@H](C(=O)N[C@@H](Cc4c[nH]c5ccccc45)C(N)=O)[C@@H](C)CC)NC(=O)[C@H](Cc4c[nH]c5ccccc45)NC(=O)[C@H](CC(C)C)NC(=O)[C@H](CCCCN)NC(=O)[C@H](CSSC[C@H](NC(=O)[C@H]([C@@H](C)O)NC(=O)[C@H](Cc4c[nH]c5ccccc45)NC1=O)C(=O)N[C@@H](CC(=O)O)C(=O)N[C@@H](CCCCN=[N+]=[N-])C(=O)N[C@@H](CCCCN)C(=O)N[C@@H](CCCNC(=N)N)C(=O)N[C@@H](C)C(=O)N3)NC(=O)[C@H](CCC(=O)O)NC(=O)[C@H](CC(C)C)NC(=O)CNC(=O)[C@H](CCC(=O)O)NC2=O [compound 305] | 0 | 0
